Assay [1] has as its system Human T24 bladder carcinoma cells. The assay is described as follows: Inhibition of the growth of human T24 bladder carcinoma cells. In kind it is cell-based. Particulars: 120 h, 5 days incubation, methylene blue staining, OD 665 nm. As for the experimental part: In this assay, the inhibitory action of compounds of formula I on the growth of human T24 bladder carcinoma cells is determined. The IC50 values obtained for the compounds of formula I are from c. 1 to 10 μmol/liter.
Human T24 bladder carcinoma cells are incubated in "Eagle's minimal essential medium", to which 5% (v/v) foetal calf serum has been added, in a humidified incubator at 37° C. and 5 percent by volume CO2 in air. The carcinoma cells (1000-1500) are inoculated in 96-well microtitre plates and incubated overnight under the stated conditions. The test compound is added in serial dilutions on day 1. The plates are incubated for 5 days under the stated conditions. During this time the control cultures undergo at least 4 cell divisions. After incubation, the cells are fixed with a 3.3% (g/v) aqueous solution of glutaraldehyde, washed with water and stained with a 0.05% (weight/volume) aqueous solution of methylene blue. After washing, the stain is eluted with 3% (g/v) aqueous hydrochloric acid. Afterwards, the optical density (OD) per well, which is directly proportional to the number of cells, is measured with a photometer (Titertek multiskan) at 665 nm. The IC50 values are computed by a computer system, using the formula [formula] The IC50 values are defined as that active compound concentration at which the number of cells per well at the end of the incubation period is only 50% of the number of cells in the control cultures. The following IC50 values are obtained in this assay for the compounds of formula I: […]

Assay [2] addresses Protein kinase C from pig brain. Put plainly: Determination of the inhibitory action on protein kinase C. In kind it is biochemical. Particulars: method of Fabbro et al., read-out: IC50, inhibition of protein kinase C. As for the experimental part: Protein kinase C from pig brain is used to determine the inhibitory action on protein kinase C. The inhibitory action of the compounds of formula I on protein kinase C is determined by the method of D. Fabbro et al, as described in Example 2. […] 0.1 to 30 μmol/liter.
Protein kinase C from pig brain purified in accordance with the procedure described by T. Uchida and C. R. Filbum in J. Biol. Chem. 259, 12311-4 (1984) is used to determine the inhibitory action on protein kinase C. The inhibitory action of the compounds of formula I on protein kinase C is determined by the method of D. Fabro et al., Arch. Biochem. Biophys. 239, 102-111 (1985). The following IC50 values are obtained in this assay for the compounds of formula I: […]

Assay [3] relates to human T24 bladder carcinoma. Put plainly: Antitumour activity in mice (T24 bladder carcinoma transplant). The settings on record: once daily for 15 days, measured 24 hours after last administration. In kind it is in vivo, female Balb/c nude mice. On the procedure:
In the assay described in Example 3, the compounds of formula I, when administered perorally or intraperitoneally, reduce tumour volume to about 35-70% of tumour volume in control animals treated with placebo.
On day 0 a c. 25 mg piece of human T24 bladder carcinoma is transplanted subcutaneously using Trokar under operable "forene" narcosis on female Balb/c nude mice (Balb/c(Balb/c nu/nu, Bomholdgaard, Denmark; six mice per group). On day 6 after the tumour transplantation the average tumour volume is 120-140 mm^3 and treatment is commenced. The treatment consists in administering perorally or intraperitoneally once daily over 15 successive days, i.e. altogether 15 times, 25 ml/kg of the following formulation. This formulation is prepared as follows: 16 mg of a compound of formula I are dissolved in 0.4 ml of dimethyl sulfoxide (100% ). Then 0.05 ml of Tween 80 is added to this solution and the batch is mixed. Then 7.6 ml of a 0.9% aqueous solution of sodium chloride are added and the batch is thoroughly mixed. This formulation is prepared fresh daily. The control animals receive a placebo. The placebo is the same formulation without compound of formula I.
24 hours after the last administration, the tumour volume is measured and the ratio [%] of the tumour volume T/C is determined in the treated animals (T) and the control animals treated with placebo (C).

The record followed here is patent US5516775A, “Further use of pyrimidine derivatives” (Ciba-Geigy Corporation, priority 1992, dated 1996).

As usually defined, the IC50 is the concentration that gives 50% inhibition.

On to `Clc1cccc(Nc2nccc(-c3cccnc3)n2)c1` [compound C, N-(3-chlorophenyl)-4-(3-pyridyl)-2-pyrimidinamine], for which the results for the IC50 in assay [1] and in assay [2] were 5.2 µM and 6.3 µM, respectively.
Consider `COC(=O)c1cccc(Nc2nccc(-c3cccnc3)n2)c1` [compound E, N-(3-methoxycarbonylphenyl)-4-(3-pyridyl)-2-pyrimidinamine], for which the IC50 in assay [2] is 26 µM.
Same read-out and setting: the result for `NCCCNC(=O)c1cccc(Nc2nccc(-c3cccnc3)n2)c1` [compound F, N-(3-[3-aminopropylaminocarbonyl]phenyl)-4-(3-pyridyl)-2-pyrimidinamine] reads 28 µM.
Regarding `FC(F)(F)c1cccc(Nc2nccc(-c3cccnc3)n2)c1` [compound B, N-(3-trifluoromethylphenyl)-4-(3-pyridyl)-2-pyrimidinamine], the 50% inhibitory concentration (IC50) in assay [1] came to 7.4 µM; in assay [2], 2.5 µM. The “ratio T/C of tumour volume” value came to 54% in assay [3] (intraperitoneal, 25 mg); 46% in assay [3] (intraperitoneal, 50 mg); 68% in assay [3] (peroral, 25 mg); 53% in assay [3] (peroral, 50 mg).
As for `c1cncc(-c2ccnc(Nc3cccc(-n4ccnc4)c3)n2)c1` [compound A, N-(3-1H-imidazol-1-ylphenyl)-4-(3-pyridyl)-2-pyrimidinamine], the IC50 in assay [1] was 2.5 µM; in assay [2], 8.8 µM.
In the case of `Nc1cccc(Nc2nccc(-c3cccnc3)n2)c1` [compound D, N-(3-aminophenyl)-4-(3-pyridyl)-2-pyrimidinamine], the results for the IC50 in assay [1] and in assay [2] were 7.2 µM and 28 µM, respectively.
